Assay results reported in patent publication US7579462B2, “Process for preparing 17-allyl amino geldanamycin (17-aag) and other ansamycins” (Conforma Therapeutics Corporation, priority 2001, dated 2009).

Test: Relative solubility of 17-AAG polymorphs in solvents and oils
Type: physicochemical
Conditions: lower melting point form (about 147-153° C.) compared with higher melting point form (about 200-212° C.) of 17-AAG; at room temperature
Text: Indeed, one aspect of the invention is the ability to form and exploit different polymorphic structures. […] The water may be premixed with the ethanol or later added to the ethanol solution already containing 17-AAG dissolved therein. […] Depending on the end-goal, one may readily convert one form to another simply by dissolving and crystallizing in the appropriate solvent.

## C=CCNC1=C2C[C@@H](C)C[C@H](OC)[C@H](O)[C@@H](C)/C=C(\C)[C@H](OC(N)=O)[C@@H](OC)/C=C\C=C(/C)C(=O)NC(=CC1=O)C2=O [17-AAG, 17-allylamino-geldanamycin]
  solubility in a variety of solvents and oils: more readily soluble
